Among the test systems are Malme-3M; M14; ACHN; SNB-19; SNB-75; MDA-N; UACC-257; SW-620; UACC-62; CCRF-CEM; HOP-62; SF-539; Hs-578T; 786-0; SN12C; LOX IMVI; OVCAR-8; U-251; HCT-15; NCI-H226.
Common to all, as to experiment: growth of human tumour cells (NCI), 48 h

The structures appear in SMILES notation.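 A five-concentration, 48-hour dose response in 96-well plates underlies each endpoint, interpolated linearly between surrounding concentrations. GI50 is the concentration that inhibits growth by half.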 Active and inactive are the calls of the source. Cut-off read from the data, not from the text of the source: active = GI50 up to about 1.1 µM and inactive = higher.

For the molecule `O=C1N/C(=N/N=C/C(O)C(O)C(O)CO)N/C1=C\c1c[nH]c2ccccc12` (stereo not given), the GI50 was > 100 µM (inactive) with Malme-3M; > 100 µM (inactive) in the test on M14; > 100 µM (inactive) with ACHN; 1.93 µM (inactive) in the test with SNB-19; > 100 µM (inactive) in the test on SNB-75; > 100 µM (inactive) with MDA-N. Moreover, the GI50 was > 100 µM (inactive) in the test with UACC-257; > 100 µM (inactive) in the test on SW-620; > 100 µM (inactive) with UACC-62; 41.7 µM (inactive) with CCRF-CEM; > 100 µM (inactive) with HOP-62; > 100 µM (inactive) in the test with SF-539. Moreover, the GI50 with Hs-578T, in the test with 786-0, in the test on SN12C, in the test on LOX IMVI, with OVCAR-8 and with U-251 was > 100 µM (inactive) in each case. The GI50 is above 100 µM in the test with HCT-15 and > 100 µM (inactive) in the test with NCI-H226.
As for `CCOC(=O)N1CC2(C(=O)OC)C=CC1C(C(=O)OC)C2` (stereo not given), the GI50 with Malme-3M, in the test with M14, with ACHN, with SNB-19, in the test on SNB-75 and in the test on MDA-N was > 100 µM (inactive) in each case. The GI50 with UACC-257, in the test on SW-620, with UACC-62, with CCRF-CEM, in the test with HOP-62 and in the test with SF-539 was > 100 µM (inactive) throughout. Besides, the GI50 in the test with Hs-578T, in the test on 786-0, in the test on SN12C, in the test on LOX IMVI, in the test on OVCAR-8 and with U-251 was > 100 µM (inactive) each time. In addition, the figures for the GI50 in the test with HCT-15 and in the test on NCI-H226 were above 100 µM and > 100 µM (inactive), respectively.
On to `Cc1ccc2nc3ccccc3c(C3C4C(=O)N(c5ccc(Br)cc5Cl)C(=O)C4ON3C(C(N)=O)c3ccccc3)c2c1` (stereo not given), for which the GI50 in the test with Malme-3M is > 25 µM (inactive); with M14, 11.6 µM (inactive); in the test with ACHN, 6.73 µM (inactive); in the test with SNB-19 it was > 25 µM (inactive); in the test on SNB-75 it was > 25 µM (inactive); in the test with MDA-N, 6.9 µM (inactive). Besides, the GI50 was 15.6 µM (inactive) with UACC-257; > 25 µM (inactive) in the test with SW-620; 7.93 µM (inactive) in the test with UACC-62; 8.13 µM (inactive) in the test with CCRF-CEM; > 25 µM (inactive) in the test on HOP-62; 11.8 µM (inactive) in the test on SF-539. The GI50 with Hs-578T is > 25 µM (inactive); in the test on 786-0 it was 20.8 µM (inactive); with SN12C it was 5.47 µM (inactive); with LOX IMVI, 22.8 µM (inactive); with OVCAR-8, > 25 µM (inactive); in the test on U-251 it was > 25 µM (inactive). The GI50 was 5.77 µM with HCT-15 and 17.2 µM (inactive) with NCI-H226.
As to `COc1ccc(N2C(=O)[C@H]3[C@H]4CC(C(C)(C)C)CC[C@H]4c4c(n(C)c5ccccc45)[C@H]3C2=O)cc1` (stereo not given in full), the GI50 is > 100 µM (inactive) in the test with Malme-3M; > 100 µM (inactive) in the test with M14; > 100 µM (inactive) in the test on ACHN; > 100 µM (inactive) in the test on SNB-19; > 87.7 µM (inactive) with SNB-75; > 100 µM (inactive) with MDA-N. Moreover, the GI50 was > 100 µM (inactive) in the test with UACC-257; > 100 µM (inactive) in the test on SW-620; 53.5 µM (inactive) in the test on UACC-62; > 100 µM (inactive) in the test with CCRF-CEM; > 5.62 µM (inactive) in the test on HOP-62; 32.4 µM (inactive) with SF-539. The GI50 with Hs-578T was 56.1 µM (inactive); with 786-0, > 100 µM (inactive); in the test on SN12C it was > 56.2 µM (inactive); in the test with LOX IMVI, > 100 µM (inactive); in the test on OVCAR-8, > 100 µM (inactive); in the test on U-251, > 56.2 µM (inactive). The GI50 was 5.62 µM in the test with HCT-15 and > 100 µM (inactive) in the test on NCI-H226.
For the molecule `CN(C)CCNC(=O)c1cccc2ccc(-c3ccc(O)cc3)nc12`, the GI50 with Malme-3M is 1.05 µM (active); with M14, 0.664 µM (active); with ACHN, 1.37 µM (inactive); in the test on SNB-19 it was 1.31 µM (inactive); in the test on SNB-75, 2.74 µM (inactive); in the test with MDA-N, 2.39 µM (inactive). Besides, the GI50 in the test with UACC-257 is 2.61 µM (inactive); with SW-620, 1.02 µM (active); with UACC-62 it was 1.39 µM (inactive); in the test on CCRF-CEM, 1.35 µM (inactive); with HOP-62, 1.47 µM (inactive); in the test on SF-539 it was 2.75 µM (inactive). Moreover, the GI50 was 2.66 µM (inactive) in the test on Hs-578T; 2.63 µM (inactive) in the test with 786-0; 2.16 µM (inactive) with SN12C; 0.743 µM (active) in the test with LOX IMVI; 1.38 µM (inactive) in the test on OVCAR-8; 2.06 µM (inactive) in the test on U-251. Also, the results for the GI50 in the test on HCT-15 and in the test with NCI-H226 were 2.75 µM and 1.93 µM (inactive), respectively.
As for `CSCCCNC(=O)c1csc(-c2csc(CCNC(=O)CNC(=O)OC(C)(C)C)n2)n1`, the GI50 in the test on Malme-3M, with M14, in the test on ACHN, in the test on SNB-19, with SNB-75 and in the test with MDA-N was > 100 µM (inactive) each time. The GI50 in the test with UACC-257 is > 100 µM (inactive); in the test with SW-620 it was > 100 µM (inactive); in the test on UACC-62 it was 28.6 µM (inactive); with CCRF-CEM, 43.1 µM (inactive); with HOP-62 it was > 100 µM (inactive); in the test on SF-539, > 100 µM (inactive). The GI50 in the test with Hs-578T, with 786-0, in the test with SN12C, with LOX IMVI, in the test with OVCAR-8 and in the test with U-251 was > 100 µM (inactive) each time. For the same molecule, the GI50 in the test with HCT-15 is above 100 µM; in the test on NCI-H226 it was > 100 µM (inactive).
For `COc1cc(-c2nc3ccccn3c2/N=C/c2cc(Br)cc(Br)c2O)ccc1O`, the GI50 is 23.3 µM (inactive) with Malme-3M; 18.2 µM (inactive) in the test on M14; 48.8 µM (inactive) in the test on ACHN; 26.1 µM (inactive) in the test with SNB-19; 24 µM (inactive) in the test on SNB-75; 22.4 µM (inactive) in the test with MDA-N. In addition, the GI50 in the test with UACC-257 was 27.1 µM (inactive); with SW-620, 26.4 µM (inactive); in the test with UACC-62, 27 µM (inactive); with CCRF-CEM, 17.7 µM (inactive); with HOP-62, 21.6 µM (inactive); with SF-539, 27.4 µM (inactive). Besides, the GI50 in the test on Hs-578T was 26.1 µM (inactive); in the test with 786-0, 18 µM (inactive); in the test with SN12C, 19.5 µM (inactive); with LOX IMVI, 24 µM (inactive); in the test on OVCAR-8, 23.4 µM (inactive); with U-251 it was 15.6 µM (inactive). In addition, the GI50 in the test with HCT-15 was 19 µM; in the test with NCI-H226, 24.1 µM (inactive).
As to `C=C1C(O)C23CCC4C(C(=O)O)(C(=O)O)CC(OC5OC(CO)C(O)C(OC(=O)CCc6ccccc6)C5NC(=O)CC(C)C)CC4(C)C2CCC1(O)C3` (stereo not given), the GI50 in the test with Malme-3M, with M14, in the test on ACHN, in the test on SNB-19, with SNB-75 and in the test with MDA-N was > 100 µM (inactive) in each case. Further, the GI50 with UACC-257, in the test on SW-620, in the test on UACC-62, in the test with CCRF-CEM, with HOP-62 and with SF-539 was > 100 µM (inactive) each time. The GI50 in the test on Hs-578T, in the test with 786-0, with SN12C, with LOX IMVI, in the test with OVCAR-8 and in the test on U-251 was > 100 µM (inactive) each time. Besides, the figures for the GI50 in the test with HCT-15 and with NCI-H226 were above 100 µM and > 100 µM (inactive), respectively.
Turning to `CC1OC(O[C@H]2CC[C@]3(C=O)[C@H]4CC[C@]5(C)[C@H](C6=CC(=O)OC6)CC[C@]5(O)[C@@H]4C=C[C@]3(O)C2)CC(O)C1O` (stereo not given in full), the GI50 in the test on Malme-3M is 0.13 µM (active); in the test with M14, 0.386 µM (active); in the test on ACHN, 0.106 µM (active); in the test with SNB-19, 0.942 µM (active); in the test on SNB-75, 0.484 µM (active); in the test with MDA-N it was 0.332 µM (active). Further, the GI50 in the test on UACC-257 is 0.579 µM (active); in the test with SW-620, 0.313 µM (active); in the test on UACC-62, 0.434 µM (active); with CCRF-CEM, 0.102 µM (active); in the test with HOP-62, 0.188 µM (active); in the test on SF-539, 0.169 µM (active). Further, the GI50 with Hs-578T was 0.239 µM (active); in the test with 786-0 it was 0.0871 µM (active); in the test on SN12C, 0.117 µM (active); with LOX IMVI it was 0.292 µM (active); with OVCAR-8, 0.346 µM (active); with U-251, 0.355 µM (active). The GI50 in the test with HCT-15 is 0.289 µM; in the test with NCI-H226, 0.514 µM (active).
Turning to `C[C@@H]1CC[C@@H](C)[C@](C)(CCc2ccoc2)C/C=C\C=C/1C(=O)O`, the GI50 with Malme-3M, in the test on M14, with ACHN, in the test on SNB-19, in the test with SNB-75 and in the test on MDA-N was > 50 µM (inactive) each time. For the same molecule, the GI50 with UACC-257, with SW-620, in the test with UACC-62, in the test on CCRF-CEM, in the test on HOP-62 and in the test on SF-539 was > 50 µM (inactive) each time. Also, the GI50 in the test with Hs-578T, in the test with 786-0, in the test with SN12C, with LOX IMVI, in the test with OVCAR-8 and in the test on U-251 was > 50 µM (inactive) throughout. The GI50 in the test with HCT-15 is above 50 µM; with NCI-H226, > 50 µM (inactive).

(Values after ChEMBL document CHEMBL1201862, “PubChem BioAssay data set” (2004).)
